In ChEMBL document CHEMBL1687820, “Photolysis of hydrogen peroxide, an effective disinfection system via hydroxyl radical formation” (Antimicrob Agents Chemother, 2010):

Legend:
Format in all cases: functional, organism-based
Streptococcus mutans [1] = test: Antibacterial activity against Streptococcus mutans JCM 5705 assessed as concentration required to 5 log reduction of biofilm measured after 300 mW of laser irradiation by scanning electron microscopy
Enterococcus faecalis [2] = test: Antibacterial activity against Enterococcus faecalis ATCC 29212 assessed as reduction of viable organism at 1 M followed by 300 mW of laser irradiation measured within 3 mins
[3] = system: Aggregatibacter actinomycetemcomitans; test: Antibacterial activity against Aggregatibacter actinomycetemcomitans JCM 2434 assessed as reduction of viable organism at 1 M followed by 300 mW of laser irradiation measured within 3 mins
Streptococcus mutans [4] = test: Antibacterial activity against Streptococcus mutans JCM 5705 assessed as reduction of biofilm measured within 3 mins by scanning electron microscopy
Streptococcus mutans [5] = test: Antibacterial activity against Streptococcus mutans JCM 5705 assessed as reduction of biofilm at 1 M followed by 300 mW of laser irradiation measured within 3 mins by scanning electron microscopy
Staphylococcus aureus [6] = test: Antibacterial activity against Staphylococcus aureus ATCC 25923 assessed as concentration required to 4 log reduction of viable organism measured after 300 mW of laser irradiation
[7] = system: Aggregatibacter actinomycetemcomitans; test: Antibacterial activity against Aggregatibacter actinomycetemcomitans JCM 2434 assessed as concentration required to 4 log reduction of viable organism measured after 300 mW of laser irradiation
Enterococcus faecalis [8] = test: Antibacterial activity against Enterococcus faecalis ATCC 29212 assessed as concentration required to 4 log reduction of viable organism measured after 300 mW of laser irradiation
Streptococcus mutans [9] = test: Antibacterial activity against Streptococcus mutans JCM 5705 assessed as reduction of viable organism at 1 M followed by 300 mW of laser irradiation measured within 3 mins
Staphylococcus aureus [10] = test: Antibacterial activity against Staphylococcus aureus ATCC 25923 assessed as reduction of viable organism at 1 M followed by 300 mW of laser irradiation measured within 3 mins
Streptococcus mutans [11] = test: Antibacterial activity against Streptococcus mutans JCM 5705 assessed as concentration required to 4 log reduction of viable organism measured after 300 mW of laser irradiation
Enterococcus faecalis [12] = test: Antibacterial activity against Enterococcus faecalis ATCC 29212 assessed as reduction of viable organism measured after 300 mW of laser irradiation

In the case of [OH], the Activity (Streptococcus mutans [1]) was 258 µM, the log10CFU/ml (Enterococcus faecalis [2]) was > 4 and the log10CFU/ml [3] was > 4. For the same compound, the log10CFU/ml (Streptococcus mutans [4]) was 1, the log10CFU/ml (Streptococcus mutans [5]) was > 5 and the Activity (Staphylococcus aureus [6]) was 173 µM. The Activity [7] was 89 µM, the Activity (Enterococcus faecalis [8]) was 258 µM and the log10CFU/ml (Streptococcus mutans [9]) was 4. For the same compound, the log10CFU/ml (Staphylococcus aureus [10]) was > 4, the Activity (Streptococcus mutans [11]) was 173 µM and the Activity (Enterococcus faecalis [12]) was “Dose-dependent effect”.
